Results as given in PMC8817134, “Galangin as a direct inhibitor of vWbp protects mice from Staphylococcus aureus‐induced pneumonia” (Journal of Cellular and Molecular Medicine, 2021).

Key:
[1] = biological target: T1, vWbp (von Willebrand factor-binding protein) (Staphylococcus aureus, UniProt Q93SM9); assay: tube and plate coagulation assay; type: biochemical; details: purified vWbp added to heparinised rabbit blood or fibrinogen agarose, 37 °C; 16-256 μg/ml galangin
T1 construct: gene vwb; His-tagged, pET15b, E. coli BL21(DE3), Ni-NTA purified

[2] = biological target: T2, vWbp (von Willebrand factor-binding protein) (Staphylococcus aureus, UniProt Q93SM9, M83A); assay: biochemical
T2 construct: gene vwb
Source text: (§1) fluorescence quenching on vWbp (von Willebrand factor-binding protein)

[3] = biological target: T3, vWbp (von Willebrand factor-binding protein) (Staphylococcus aureus, UniProt Q93SM9, W64A); assay: biochemical
T3 construct: gene vwb
Source text: as §1

[4] = biological target: T4, vWbp (von Willebrand factor-binding protein) (Staphylococcus aureus, UniProt Q93SM9, L69A); assay: biochemical
T4 construct: gene vwb
Source text: as §1

[5] = biological target: T5, vWbp (von Willebrand factor-binding protein) (Staphylococcus aureus, UniProt Q93SM9, D70A); assay: biochemical
T5 construct: gene vwb
Source text: as §1

[6] = biological target: T1, vWbp (von Willebrand factor-binding protein); assay: biolayer interferometry (Octet RED, Ni-NTA sensor); details: read-out: binding constant
[7] = biological target: T1, vWbp (von Willebrand factor-binding protein); assay: fluorescence quenching; details: read-out: WT vWbp (converted)
Source text: as §1

With `O=c1c(O)c(-c2ccccc2)oc2cc(O)cc(O)c12` [galangin, 3,5,7-trihydroxyflavone] the “tube and plate coagulation assay” value [1] was “these results demonstrated that galangin can inhibit the coagulase activity of vWbp”, the Kd [2] was 7.35 µM and the Kd [3] was 20 µM. It also gave a Kd [4] of 31.2 µM, a Kd [5] of 9.71 µM and a Kd [6] of 11 µM. It also gave a Kd [7] of 6.9 µM.
